Publication PMC6962373, “Combinatorial allosteric modulation of agonist response in a self-interacting G-protein coupled receptor” (Communications Biology, 2020)
Where two headings read alike, the source gives them in different places.

Legend:
Type in all cases: cell-based, human
[1] = tested on: HEK293 S1PR1 expressing cells; assay: EGF-mediated ERK1/2 phosphorylation in HEK293 S1PR1 expressing cells (inhibitor specificity control); settings: CCG215022 50 µM, 20 nM EGF for 5 min
Method: HEK293 cells were plated in 96 multi-well plates and grown until 90% confluent. After the S1P-starvation, the cell monolayers were treated as described in the text and then processed using the ERK1/2 (pT202/Y204 + Total) ELISA Kit from Abcam (cat n. ab176660), following the manufacturer guidelines and adding the HALT™ Proteases & Phosphatases inhibitor cocktail (Thermo Fisher Scientific) to the lysis buffer provided with the kit. To quantify pERK1/2 and total ERK, 40 µg and 5 µg of total protein extract were used from each well, respectively. The chromogenic signals were read at the Sunrise Tecan multi-plate reader and expressed as pERK/ERKTotal signal ratio. […] AKT phosphorylation was quantified by ELISA as above in cell lysates after 5 min stimulation, with the AKT (pS473 + Total) ELISA Kit from Abcam (cat. n. ab176657).
Supplementary Figure 2 | Effects of S1PR1 overexpression in HEK293 cells. […]
20 nM EGF for 5 min. pERK1/2 or pAKT were measured in the cell extracts by ELISA and expressed as relative units; n=12 independent experiments. […]
(§1) ELISA and expressed as relative units; n=3 independent experiments. […]
without 30 min pre-treatment with 100 µM ML056. Cell extracts were then analysed in immunoblotting for S1PR1, ERK1/2 and pERK1/2.

[2] = tested on: HEK293 S1PR1 expressing cells; assay: AKT phosphorylation ELISA in HEK293 S1PR1 expressing cells; settings: 0.1 µM S1P or FTY720-P for 5 min, PTX 300 ng/mL, CCG215022 50 µM
Method: HEK293 cells were plated in 96 multi-well plates and grown until 90% confluent. […] To quantify pERK1/2 and total ERK, 40 µg and 5 µg of total protein extract were used from each well, respectively. The chromogenic signals were read at the Sunrise Tecan multi-plate reader and expressed as pERK/ERKTotal signal ratio. […] AKT phosphorylation was quantified by ELISA as above in cell lysates after 5 min stimulation, with the AKT (pS473 + Total) ELISA Kit from Abcam (cat. n. ab176657). […]
pertussis toxin (PTX) for 18 hours and with 0.1% DMSO alone or with 50 µM CCG215022 […]
20 nM EGF for 5 min. pERK1/2 or pAKT were measured in the cell extracts by ELISA and expressed as relative units; n=12 independent experiments. (b) HEK293 cells expressing […]
as §1

[3] = tested on: HEK293 cells expressing mS1PR1-eGFP; assay: Confocal microscopy count of cytosolic eGFP+ clusters (receptor internalisation), mS1PR1-eGFP; settings: 0.1 µM, 20 min
Method: (§2) Cells expressing S1PR1-eGFP or mS1PR1-eGFP were plated onto poly-L-lysine-coated 8 well µ-slides (Ibidi) at 3 × 10^4 cell/well. […] Images were deconvoluted using Huygens Professional Software (Scientific Volume Imaging). Mid-plane z-sections were used for counting cytosolic GFP^+ vesicles in cells stimulated for 20 min. Confocal imaging was performed at the Advanced Light and Electron Microscopy Bioimaging Centre of IRCCS San Raffaele Scientific Institute. We used a custom Matlab script (Supplementary Data 1) performing the following image analysis: (i) the membranes were segmented from the image, identifying regions of both absolute and local high intensity (Supplementary Fig. 9A–G) in order to include all the membranes independently of their intensity; (ii) morphological erosion was used to clear small objects and to smooth the edges of the identified membranes (Supplementary Fig. 9H, I); (iii) the region of interest was defined as the region completely enclosed by a membrane (Supplementary Fig. 9J, K); (iv) GFP^+ cytosolic vesicles were identified as local intensity maxima (Supplementary Fig. 9L–O) within the region of interest and counted. Experiments were replicated independently three times. The number of vesicles from 40 to 150 cells were counted as detailed in Fig. 4 legend and the statistical analysis performed with the GraphPad Prism software.

[4] = tested on: HEK293 cells expressing S1PR1-eGFP; assay: Anti-GFP immunoprecipitation of S1PR1-eGFP, immunoblot for β-arrestin 1/2 and ERK1/2; settings: 0.1 µM, co-immunoprecipitation; for S1PR1 binding to β-arrestins in the late signalling phase: 30 min
Method: (§3) Cells were washed twice in ice-cold phosphate-buffered saline and lysed in 20 mM HEPES, 150 mM NaCl, 1% Triton X-100, 0.15% Nonidet P-40, 1× HALT™ Proteases and Phosphatases inhibitor cocktail, 1.25 U/mL Benzonase. Clarified lysates were incubated for 1 h at +4 °C with GFP-Trap® resin (Chromotek) and extensively washed with lysis buffer. Finally, the immunopurified material was eluted in 4% SDS and analysed by immunoblot. The equal loading was based on the GFP amount reading the samples in the Cary Eclipse Varian spectrofluorometer with 488 nm λEx and 509 nm λEm. In some experiments, cells expressing S1PR1 without the GFP tag were used as control and the equal loading was based on total protein concentration measured with the BCA method (G Biosciences).

[5] = tested on: HEK293 cells expressing S1PR1-eGFP; assay: Confocal microscopy count of cytosolic eGFP+ clusters (receptor internalisation), S1PR1-eGFP; settings: 0.1 µM, 20 min
Method: as §2

[6] = tested on: HEK293 cells expressing mS1PR1; assay: ERK1/2 phosphorylation ELISA/immunoblot in HEK293 cells expressing mS1PR1; settings: for change of potency in stimulating ERK phosphorylation, mS1PR1 vs S1PR1 clones / maximal pERK response in mS1PR1 vs S1PR1 clones: 5 min stimulation, 1 pM–1 mM ligand
Method: 95% CI are reported in Supplementary Fig. 4.
(§4) Human embryonic kidney-293 (HEK293, ATCC CRL-1573) cells were routinely maintained in complete DMEM/F12 1:1 mixture (Sigma Aldrich) containing 10% FBS and 0.5 mM N-acetyl cysteine. Mycoplasma detection was performed routinely by checking for cytoplasmic DNA and every six months with Universal Mycoplasma Detection Kit (ATCC 30–1012 K). The stop-less coding sequences of either wild-type S1PR1 or mS1PR1 (without the additional modifications present in the constructs for the protein production) were obtained from GeneArt (Thermo Fisher Scientific) and inserted into the HindIII/BamHI-digested pEGFP-N1 vector (Takara) to express S1PR1- and mS1PR1-eGFP. The pEFGP-N1-S1PR1 or pEFGP-N1-mS1PR1 plasmids were further modified by re-introducing the TAG stop codon at the 3′ end of the S1PR1 open reading frame to express untagged S1PR1 or mS1PR1, respectively, using the primer pair 5’-[…]-3’ and 5′-[…]-3′. Cell monolayers were transfected with JetPEI™ (Polyplus) and the appropriate plasmid vectors. Transfected cell cultures were passed once a week for three times and then the GFP^+ cells were sorted in a MoFlo XDP (Beckman Coulter). Sorted cell cultures were expanded and sorted again and the expression of the desired chimeric protein verified by immunoblot. Sorting was performed at the Flow Cytometry Resourc, Advanced Cytometry Technical Applications Laboratory of IRCCS San Raffaele Scientific Institute.
(§5) Two hundred nanomole of S1PR1/L of culture medium were used at […] receptor concentration. Under sterile conditions, purified receptor was first dialysed three times against the serum-free medium. Medium-equilibrated S1PR1 was then incubated 24 h at +4 °C in complete culture medium. The depletion procedure was performed twice for each lot of culture medium. […] The depleted medium was also used to prepare 1000× stock solutions of each of the two S1PR1 agonists or the GRK inhibitor CCG215022, and the 10× ML056 stock solution used in the cell-based experiments.
(§6) HEK293 cells were plated in 96 multi-well plates and grown until 90% confluent. […] To quantify pERK1/2 and total ERK, 40 µg and 5 µg of total protein extract were used from each well, respectively. The chromogenic signals were read at the Sunrise Tecan multi-plate reader and expressed as pERK/ERKTotal signal ratio. […] AKT phosphorylation was quantified by ELISA as above in cell lysates after 5 min stimulation, with the AKT (pS473 + Total) ELISA Kit from Abcam (cat. n. ab176657).

[7] = tested on: HEK293 cells expressing S1PR1-eGFP; assay: Fluorescence-based analysis of S1PR1 down-modulation, S1PR1-eGFP; settings: 4 h-long treatment
Method: (§7) Cells were washed twice in ice-cold phosphate-buffered saline and lysed in 20 mM HEPES, 150 mM NaCl, 1% Triton X-100, 0.15% Nonidet P-40, 1× HALT™ Proteases & Phosphatases inhibitor cocktail, 1.25 U/mL Benzonase. Lysates were clarified were used and 50 µg of total protein from each sample were read in the Cary Eclipse Varian spectrofluorometer with 488 nm λEx and 509 nm λEm to measure the eGFP amount.

[8] = tested on: HEK293 cells expressing mS1PR1-eGFP; assay: Anti-GFP immunoprecipitation of mS1PR1-eGFP, immunoblot for β-arrestin 1/2 and ERK1/2; settings: 0.1 µM, co-immunoprecipitation
Method: as §3

[9] = tested on: HEK293 cells expressing S1PR1; assay: ERK1/2 phosphorylation ELISA/immunoblot in HEK293 cells expressing S1PR1
Method: as §4, §5, §6

[10] = tested on: HEK293 cells expressing mS1PR1-eGFP; assay: Fluorescence-based analysis of S1PR1 down-modulation, mS1PR1-eGFP; settings: 4 h-long treatment
Method: as §7

Compound	effect on AKT phosphorylation [2]	number of clusters/cell, 95% CI [3]	S1PR1 binding to β-arrestins in the late signalling phase [4]	ERK1/2 recruited onto activated S1PR1 [4]	number of clusters/cell, 95% CI [5]	change of potency in stimulating ERK phosphorylation, mS1PR1 vs S1PR1 clones [6]	maximal pERK response in mS1PR1 vs S1PR1 clones [6]	stable interaction of mS1PR1 with β-arrestin [8]	further results
CC1=C(C(=O)Nc2ccc3[nH]ncc3c2)C(c2ccc(F)c(C(=O)NCc3ccccn3)c2)NC(=O)N1 (centres unmarked) [CCG215022]	not modified								effect on EGF-mediated ERK1/2 phosphorylation [1]: does not inhibit
CCCCCCCCc1ccc(CC[C@](N)(CO)COP(=O)(O)O)cc1 [FTY720-P, FTY720 (S)-phosphate]	induced	8.7–11 clusters/cell	stable binding to β-arrestins	did not show an increase of the interaction with ERK1/2 above baseline levels	9.9–14.1 clusters/cell	ten-fold decrease of their potency	not affected	neither S1P nor FTY720-P were capable to induce a stable interaction	pERK1/2 kinetics in mS1PR1 cells ([6]; 0.1 µM agonist): stable level of ERK1/2 phosphorylation; S1PR1 level in cell lysates (receptor degradation) [7]: barely detectable; time at which pERK1/2 response decreased to the baseline level ([9]; 0.1 µM agonist): 20 min; time of early pERK1/2 peak ([9]; 0.1 µM agonist, S1P-starved cells): 5 min; mS1PR1 level in cell lysates (receptor degradation) [10]: remained stable
CCCCCCc1cccc(NC(=O)[C@H](N)CCP(=O)(O)O)c1 [ML056]									effect on agonist-induced signalling response (pERK1/2) ([9]; 30 min pre-treatment with 100 µM ML056, then 0.1 µM S1P, immunoblot): abrogated
CCCCCCCCCCCCC/C=C/[C@@H](O)[C@@H](N)COP(=O)(O)O [S1P, Sphingosine 1-phosphate]	induced	5.7–7.7 clusters/cell	only a limited interaction	recruited more ERK1/2	6.7–10.2 clusters/cell	ten-fold decrease of their potency	not affected	neither S1P nor FTY720-P were capable to induce a stable interaction	pERK1/2 still detectable after 60 min, % of its maximal value [9]: 50%; time of early pERK1/2 peak [9]: 5 min
pertussis toxin	abolishes								effect on agonist-induced ERK phosphorylation in mS1PR1-expressing clones ([6]; 300 ng/mL PTX, stimulation with either agonist): reduced the ERK phosphorylation to basal; effect on S1P- and FTY720-P-induced ERK1/2 phosphorylation ([9]; 300 ng/mL pertussis toxin for 18 h, then 0.1 µM agonist): undetectable
